Experiments:
HPAC cells (KRAS G12D) = experiment: 3D Cell viability assay in HPAC cells (Biological Example 6); format: cell-based; conditions: Homo sapiens, HPAC, 72 h, HPAC (KRAS G12D) spheroids
Summary of the method: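 Tumour spheroids, grown 48 h from 1000 seeded cells in ultra-low attachment wells, receive compound at nine three-fold-spaced concentrations (final DMSO 0.25%) for 72 h at 37 °C, 5% CO2. Viability is measured by luminescence after CTG 3D lysis.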

H358 cells (KRAS G12C) = experiment: Cell-based pERK HTRF assay in H358 cells (Biological Example 5)
Summary of the method: (§1)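 To gauge disruption of KRAS-driven signalling, pERK1/2 (Thr202/Tyr204) was quantified by time-resolved FRET in lysates of cells exposed 2 h at 37° C to a 9-point dose series. Signal ratio 665/620 nm was converted to % pERK for four-parameter EC50 fitting.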

[1] = test system: MKN1 cells (KRAS amplification); experiment: Cell-based pERK HTRF assay in MKN1 cells (Biological Example 5)
Summary of the method: as §1

SW1900 cells (KRAS G12D) = experiment: Cell-based pERK HTRF assay in SW1900 cells (Biological Example 5)
Summary of the method: as §1

[2] = target: T1, Avi-KRAS G12V (2-169) GTP/RAF1 RBD-3xFLAG (51-131) (Homo sapiens, UniProt P01116, G12V); experiment: Raf1-KRAS G12V-GTP disruption HTRF assay (Biological Example 3); format: binding; conditions: KRAS G12V, GTP-loaded
T1 construct: Avi-KRAS G12V (2-169)
T1 sequence (P01116 2-169 isoform P01116-2 G12V): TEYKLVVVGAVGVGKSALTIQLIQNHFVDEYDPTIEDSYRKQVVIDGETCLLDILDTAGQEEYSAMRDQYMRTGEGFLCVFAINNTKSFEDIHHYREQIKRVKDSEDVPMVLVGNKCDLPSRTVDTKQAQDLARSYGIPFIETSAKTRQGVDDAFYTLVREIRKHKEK
Summary of the method: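 An HTRF assay measured disruption of 50 nM Avi-KRAS (2-169)-GTP (WT, G12C, G12D or G12V) bound to RAF1 RBD-3xFLAG (51-131). Buffer was Tris pH 7.5 with 5 mM MgCl2 and 10% DMSO. Compounds (30–0.005 μM, 3-fold, 10 points) were incubated 1 h at room temperature, and activity is given as % of DMSO.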

[3] = test system: Capan-2 cells (KRAS G12V); experiment: 3D Cell viability assay in Capan-2 cells (Biological Example 6); format: cell-based; conditions: Homo sapiens; Capan-2 (KRAS G12V) spheroids, 72 hours
Description: Biological Example 6: 3D Cell viability assay in AsPC-1, SW1900, HPAC, Capan-2, RKN, H358, HCT116, KP-2, H1573, A549, MKN1, and HT1080 cells
The inhibition of cellular viability as a result of test compound treatment in a spheroid assay was measured using the CellTiter-Glow 3D Cell Viability Assay (Promega).
On Day 1, 1000 cells per well were seeded in 150 μL of complete growth media supplemented with 10% fetal bovine serum (FBS) and incubated at 37° C., in the presence of 5% CO2 in 96-well ultra-low attachment microplates (Corning) for 48 hours undisturbed to allow spheroids to form.
Following spheroid formation, cells were treated with compounds diluted in DMSO at 0.25% final DMSO concentration. Compounds were dosed in a 9-point concentration curve with three-fold dilution between concentrations. Cells were incubated in the presence of compound for 72 hours at 37° C., in the presence of 5% CO2.
Following this incubation period, the kit-provided CTG reagent was allowed to equilibrate for 30 minutes at room temperature, 150 μL of equilibrated CTG reagent was added to each well, and the plate was sealed before shaking at 250 rpm for 10 minutes at room temperature to lyse the cells, 150 μL of lysate per well was transferred to a 96-well plate and luminescence was read on a CLARIOstar plate reader.
Data was imported into the Prism software package (Graphpad) and EC50 values were calculated using the log (inhibitor) vs, response—variable slope (Four parameters) model.

[4] = Homo sapiens, NCI-H358, H358 (KRAS G12C) cells
[5] = Homo sapiens, MKN-1, MKN cells (MKN1, KRAS amplification)
[6] = Homo sapiens, SW1990, SW1990 cells (text: SW1900, KRAS G12D)

Compound | IC50 (H358 cells (KRAS G12C); [4]) [nM] | IC50 [1, 5] [nM] | IC50 (SW1900 cells (KRAS G12D); [6]) [nM] | IC50 [2] [nM] | IC50 (H358 cells (KRAS G12C); H358 (KRAS G12C) cells) [nM] | IC50 ([1]; MKN cells (MKN1, KRAS amplification)) [nM] | IC50 (SW1900 cells (KRAS G12D); SW1990 cells (text: SW1900, KRAS G12D)) [nM] | IC50 (HPAC cells (KRAS G12D)) [nM] | IC50 [3] [nM]
CCC(=O)N1CC[C@@H](N(CC)c2nc(OC[C@@]34CCCN3C[C@H](F)C4)nc3c(F)c(-c4ccc(F)c5sc(N)c(C#N)c45)c(C(F)(F)F)cc23)[C@H]1C (atropisomer, axis not shown) [Compound 523] | ≤ 100 | ≤ 100 | ≤ 100 | ≤ 100 | – | – | – | > 1000 | ≤ 100
CCN(c1nc(OC[C@@]23CCCN2C[C@H](F)C3)nc2c(F)c(-c3ccc(F)c4sc(N)c(C#N)c34)c(C(F)(F)F)cc12)[C@@H]1CCN(C(=O)C2CC2)[C@@H]1C (atropisomer, axis not shown) [Compound 524] | ≤ 100 | ≤ 100 | ≤ 100 | ≤ 100 | – | – | – | > 1000 | ≤ 100
N#Cc1c(N)sc2c(F)ccc(-c3c(C(F)(F)F)cc4c(N5CCn6nc(N7CCOCC7)cc6C5)nc(OC[C@@]56CCCN5C[C@H](F)C6)nc4c3F)c12 [Compound 485] | ≤ 100 | ≤ 100 | ≤ 100 | – | – | – | – | 100 to 1000 | ≤ 100
Cc1cc2n(n1)CCN(c1nc(OCC34CCCN3CC(F)C4)nc3c(F)c(-c4ccc(F)c5sc(N)c(C#N)c45)c(C(F)(F)F)cc13)C2 (stereo not shown) [Compound 484] | ≤ 100 | ≤ 100 | ≤ 100 | – | – | – | – | 100 to 1000 | ≤ 100
CCN(c1nc(OC[C@@]23CCCN2C[C@H](F)C3)nc2c(F)c(-c3ccc(F)c4sc(N)c(C#N)c34)c(C(F)(F)F)cc12)[C@H]1C[C@@H]2COC(=O)N2C1 (atropisomer, axis not shown) [Compound 519] | ≤ 100 | ≤ 100 | ≤ 100 | 100 to 1000 | – | – | – | 100 to 1000 | ≤ 100
CCN(c1nc(OC[C@@]23CCCN2C[C@H](F)C3)nc2c(F)c(-c3ccc(F)c4sc(N)c(C#N)c34)c(C(F)(F)F)cc12)[C@H]1C[C@H]2CN(C)C(=O)N2C1 (atropisomer, axis not shown; (aS)) [Compound 543, 2-amino-4-((S)-4-(ethyl((6S,7aS)-2-methyl-3-oxohexahydro-1H-pyrrolo[1,2-c]imidazol-6-yl)amino)-8-fluoro-2-(((2R,7aS)-2-fluorotetrahydro-1H-pyrrolizin-7a(5H)-yl)methoxy)-6-(trifluoromethyl)quinazolin-7-yl)-7-fluorobenzo[b]thiophene-3-carbonitrile] | ≤ 100 | ≤ 100 | ≤ 100 | ≤ 100 | – | – | – | ≤ 100 | ≤ 100
CCN(c1nc(OC[C@@]23CCCN2C[C@H](F)C3)nc2c(F)c(-c3ccc(F)c4sc(N)c(C#N)c34)c(C(F)(F)F)cc12)[C@H]1C[C@H](C)N(C(=O)C2CC2)C1 [Compound 470] | ≤ 100 | ≤ 100 | ≤ 100 | – | – | – | – | > 1000 | ≤ 100
Cc1c(C(=O)N(C)C)nn2c1CN(c1nc(OC[C@@]34CCCN3C[C@H](F)C4)nc3c(F)c(-c4ccc(F)c5sc(N)c(C#N)c45)c(C(F)(F)F)cc13)CC2 [Compound 501] | ≤ 100 | ≤ 100 | ≤ 100 | 100 to 1000 | – | – | – | 100 to 1000 | ≤ 100
CCN(c1nc(OC[C@@]23CCCN2C[C@H](F)C3)nc2c(F)c(-c3ccc(F)c4sc(N)c(C#N)c34)c(C(F)(F)F)cc12)[C@H]1C[C@H]2COC(=O)N2C1 (atropisomer, axis not shown; (aS)) [Compound 518, 2-amino-4-((S)-4-(ethyl((6S,7aS)-3-oxotetrahydro-1H,3H-pyrrolo[1,2-c]oxazol-6-yl)amino)-8-fluoro-2-(((2R,7aS)-2-fluorotetrahydro-1H-pyrrolizin-7a(5H)-yl)methoxy)-6-(trifluoromethyl)quinazolin-7-yl)-7-fluorobenzo[b]thiophene-3-carbonitrile] | ≤ 100 | ≤ 100 | ≤ 100 | ≤ 100 | – | – | – | ≤ 100 | ≤ 100

Continued, in another order:

IC50 (H358 cells (KRAS G12C); [4]) [nM] | IC50 [1, 5] [nM] | IC50 (SW1900 cells (KRAS G12D); [6]) [nM] | IC50 [2] [nM] | IC50 (H358 cells (KRAS G12C); H358 (KRAS G12C) cells) [nM] | IC50 ([1]; MKN cells (MKN1, KRAS amplification)) [nM] | IC50 (SW1900 cells (KRAS G12D); SW1990 cells (text: SW1900, KRAS G12D)) [nM] | Compound | IC50 (HPAC cells (KRAS G12D)) [nM] | IC50 [3] [nM]
– | – | – | – | > 1000 | > 1000 | > 1000 | CCN(c1nc(OC[C@@]23CCCN2C[C@H](F)C3)nc2c(F)c(-c3ccc(F)c4sc(N)c(C#N)c34)c(C(F)(F)F)cc12)[C@H]1CCN(C(=O)C(C)C)C1 (atropisomer, axis not shown) [Compound 468] | – | –
≤ 100 | ≤ 100 | ≤ 100 | ≤ 100 | – | – | – | CCN(c1nc(OC[C@@]23CCCN2C[C@H](F)C3)nc2c(F)c(-c3ccc(F)c4sc(N)c(C#N)c34)c(C(F)(F)F)cc12)[C@H]1CCN(C(=O)N(C)C)C1 (atropisomer, axis not shown) [Compound 540, (3S)-3-[[7-(2-amino-3-cyano-7-fluoro-benzothiophen-4-yl)-8-fluoro-2-[[(2R,8S)-2-fluoro-1,2,3,5,6,7-hexahydropyrrolizin-8-yl]methoxy]-6-(trifluoromethyl)quinazolin-4-yl]-ethyl-amino]-N,N-dimethyl-pyrrolidine-1-carboxamide] | 100 to 1000 | ≤ 100
≤ 100 | ≤ 100 | ≤ 100 | ≤ 100 | – | – | – | CCN(c1nc(OC[C@@]23CCCN2C[C@H](F)C3)nc2c(F)c(-c3ccc(F)c4sc(N)c(C#N)c34)c(C(F)(F)F)cc12)[C@H]1CCN(C(=O)OC)C1 (atropisomer, axis not shown) [Compound 541, methyl(3S)-3-[[7-(2-amino-3-cyano-7-fluoro-benzothiophen-4-yl)-8-fluoro-2-[[(2R,8S)-2-fluoro-1,2,3,5,6,7-hexahydropyrrolizin-8-yl]methoxy]-6-(trifluoromethyl)quinazolin-4-yl]-ethyl-amino]pyrrolidine-1-carboxylate] | ≤ 100 | ≤ 100
≤ 100 | ≤ 100 | ≤ 100 | – | – | – | – | CCOC(=O)N1CC[C@H](N(CC)c2nc(OC[C@@]34CCCN3C[C@H](F)C4)nc3c(F)c(-c4ccc(F)c5sc(N)c(C#N)c45)c(C(F)(F)F)cc23)C1 [Compound 467] | > 1000 | ≤ 100
≤ 100 | ≤ 100 | ≤ 100 | – | – | – | – | CCN(c1nc(OC[C@@]23CCCN2C[C@H](F)C3)nc2c(F)c(-c3ccc(F)c4sc(N)c(C#N)c34)c(C(F)(F)F)cc12)[C@H]1CCS(=O)(=O)C1 (atropisomer, axis not shown) [Compound 492] | ≤ 100 | ≤ 100
≤ 100 | ≤ 100 | ≤ 100 | ≤ 100 | – | – | – | CCN(c1nc(OC[C@@]23CCCN2C[C@H](F)C3)nc2c(F)c(-c3ccc(F)c4sc(N)c(C#N)c34)c(C(F)(F)F)cc12)[C@H]1CCN(C(=O)C(C)C)C1 (single isomer, unassigned) [Compound 469] | ≤ 100 | ≤ 100

Source: patent publication US20260042764A1, “COMPOSITIONS AND METHODS FOR INHIBITION OF KRAS” (TheRas, Inc., priority 2022, published 2026)
